Source: PMC5465826 (Research in Pharmaceutical Sciences, 2017)
“And” between values parts separate entries of the source, which are not always exact repeats. Equal values may be shown once. Read-outs that look alike come from different tables or passages of the source.

Assays:
[1] = humans, 5 g oral dose of a botanical mixture of 7 herbs; ref [28]; cited from earlier work
[2] = type: in vivo, rat
[3] = ref [18][19][21][25][26][27], cited from earlier work
[4] = intravenous 20 mg/kg, achiral, approximate; ref [25][26]; cited from earlier work
[5] = rat serum, IV 20 mg/kg racemic liquiritigenin, mean ± SEM, n = 4, 20 mg/kg
[6] = oral, given alone or in a mixture (exact dose unknown), approximate

Compound: O=C1C[C@H](c2ccc(O)cc2)Oc2cc(O)ccc21 [R-liquiritigenin]
- fraction excreted unchanged in the urine (fe %) [1]: 50.9 ± 21.6%
- t1/2 serum [2, 5]: 32.59 ± 4.26 min

Compound: O=C1C[C@@H](c2ccc(O)cc2)Oc2cc(O)ccc21 [S-liquiritigenin]
- fraction excreted unchanged in the urine (fe %) [1]: 36.2 ± 19.0%

Compound: O=C1C[C@@H](c2ccc(O)cc2)Oc2cc(O)ccc21 [liquiritigenin]
- time liquiritigenin could be measured in serum ([2]; rat serum): only an hour
- t1/2 serum [2, 5]: 12 to 30 min and 15 to 32.4 min and 15 to 25.8 min
- time liquiritigenin could be measured (detected) in urine ([2]; rat urine): up to 70 h
- Vss ([2]; rat, IV 20 mg/kg racemic liquiritigenin, mean ± SEM, n = 4, 20 mg/kg): 2.7 to 4.6 L/kg
- bioavailability ([3]; Kang, et al., oral doses of 20-50 mg/kg): 3-7%
- AUC [3, 6]: 19 to 6594 ng·h/mL
- plasma half-lives [3, 6]: 3 to 11 h
- AUC [4]: 290 to 410 µg·min/mL
- clearances [4]: 50 to 70 mL/min/kg
- plasma half-lives [4]: 5 to 8 min
